The results in this text go back to patent publication US10179780B2, “Azole benzene derivative and crystalline form thereof” (TEIJIN PHARMA LIMITED, priority 2014, dated 2019).

In series [1] the test system is level of uric acid in the plasma. The series is described as follows: Hypouricemic effect (oxonic acid-induced hyperuricemic beagle dogs). It is filed as in vivo. The conditions noted are these: hyperuricemic beagle dog, oral, 10 mg/kg, 8 hours after administration. The method, then:
The hypouricemic effect was confirmed for the compounds (I) in oxonic acid-induced hyperuricmic beagle dog. […] Potassium oxonate (50 mg/kg) was subcutaneously administrated before and 4 hours after compound administration. After the blood was collected from the cephalic vein at 8 hours after administration, the plasma was separated. The level of uric acid in the plasma sample was measured by LC-MS/MS method and the percentage of hypouricemic effect was determined by the following expression: Percentage of hypouricemic effect (%)=(Level of uric acid of the control animal−Level of uric acid of the test compound-administered animal)×100/Level of uric acid of the control animal.

In series [2] the test system is level of uric acid in the blood. The series is described as follows: Hypouricemic effect (normal rats), 2 hours after oral administration. The conditions noted are these: 2 hours after administration.
Experimental: A test compound suspended in a 0.5% methylcellulose solution was administered to 8 to 9 week-old Sprague-Dawley male rats (Japan Charles River Co.) by oral gavage administration using a feeding needle. After the blood was collected from the tail vein at 2 hours after administration, the plasma was separated. The level of uric acid in the blood sample was measured by uricase method using an absorption spectrometer as well as a uric acid determination kit (L type Wako UA F: Wako Pure Chemical Industries, Ltd.). The percentage of hypouricemic effect was determined by the following expression: Percentage of hypouricemic effect (%)=(Level of uric acid of the control animal−Level of uric acid of the test compound-administered animal)×100/Level of uric acid of the control animal.
For series [3] the test system is unchanged. In words: Prolonged hypouricemic effect (normal rats), 24 hours after oral administration. The conditions noted are these: 24 hours after administration. It is filed as in vivo, Sprague-Dawley male rats. The method, then: The crystal form A of the compound (II) was administered to Sprague-Dawley male rats in the similar manner as Example 5.
After the blood was collected from the tail vein 24 hours after administration, the plasma was separated. The level of uric acid in the blood was measured by an uricase method using an absorption spectrometer and a uric acid determination kit (L type Wako UA F: Wako Pure Chemical Industries, Ltd.). The percentage of hypouricemic effect was determined by the following expression: Percentage of hypouricemic effect=(Level of uric acid of the control animal−Level of uric acid of the test compound-administered animal)×100/Level of uric acid of the control animal.

Series [4] can be described thus: Solubility into JP2 solution (pH 6.8). It is filed as physicochemical. As for the experimental part: The solubility of the compound (II) in JP2 solution (pH 6.8) was confirmed. A solution was prepared by mildly pulverizing the crystals A of the compound (II) in a mortar, and adding approximately 4 mg of the pulverized crystals to […] of JP2 solution while stirring at room temperature. The absorbance (At) of each solution at 280 nm was successively measured immediately after the addition of the crystals using an ultraviolet-visible absorbance measurement method and the solubility at each measurement time was determined by the following expression using the absorbance (As) of a standard solution at 280 mu determined in advance as an index. The measurement was continued until 120 minutes. Solubility=At/As×Cs (where Cs represents the concentration of a standard solution) • Measurement apparatus: μDISS Profiler manufactured by Pion Inc. • Stirring rate: 700 rpm • UV measurement wavelength: 280 nm • Measurement interval: Start of measurement to 1 minute: 3 seconds • 1 to 8 minutes: 20 seconds • 8 to 120 minutes: 2 minutes

As for `Cc1nc(-c2ccc(OCC(C)C)c(-n3cnnn3)c2)sc1C(=O)O` [compound (I), 4-methyl-2-[4-(2-methylpropoxy)-3-(1H-1,2,3,4-tetrazol-1-yl)phenyl]-1,3-thiazole-5-carboxylic acid], the hypouricemic effect entry in series [1] was “showed a hypouricemic effect”. The “Percentage of hypouricemic effect” value in series [2] (1 mg/kg) is listed as no less than 50%; in series [2] (10 mg/kg) it was no less than 50%; in series [3] (3 mg/kg), no less than 40%; in series [3] (10 mg/kg) it was no less than 50%.

In general, solubility refers to the dissolved amount per volume that the medium holds. Read a low solubility as little dissolved substance. Regarding `Cc1nc(-c2ccc(OCC(C)C)c(-n3cnnn3)c2)sc1C(=O)[O-].[Na+]` [compound (II), sodium 4-methyl-2-[4-(2-methylpropoxy)-3-(1H-1,2,3,4-tetrazol-1-yl)phenyl]-1,3-thiazole-5-carboxylate], the “Percentage of hypouricemic effect” value in series [2] (1 mg/kg) was no less than 50%; in series [2] (10 mg/kg), no less than 50%; in series [3] (3 mg/kg) it was no less than 40%; in series [3] (10 mg/kg) it was no less than 50%. Also, the “Precipitation / maintenance of dissolved state” value in series [4] (JP2 solution pH 6.8, up to 120 minutes after the addition) is given as “no precipitation was observed”. In series [4] (approximately 4 mg of pulverized crystals in JP2 solution pH 6.8, 700 rpm), the “Time until total amount was dissolved” value is no more than 30 s. The solubility at 120 minutes in series [4] (aqueous buffer, thermodynamic from solid, JP2 solution pH 6.8, room temperature, at 120 minutes after the addition) amounted to 184 µg/mL. In series [4] (aqueous buffer, thermodynamic from solid, JP2 solution pH 6.8, room temperature, total amount dissolved within 30 seconds after the addition), the solubility at 30 seconds stood at 187 µg/mL.
